Reference: publication PMC8514817, “De Novo Design of Antimicrobial Peptides With a Special Charge Pattern and Their Application in Combating Plant Pathogens” (Frontiers in Plant Science, 2021)
Where a SMILES comes first, the peptide text is derived from it. The star is where a group is joined. Myristoyl = CCCCCCCCCCCCCC(=O)*

Experiments:
[1] = tested on: Pcc; assay type: cell-based, Pectobacterium carotovorum subsp. carotovorum
[2] = tested on: Pcc; conditions: 48 h
[3] = tested on: Ech; conditions: 48 h
[4] = tested on: Xcc Xcc17; conditions: Table 4, rich medium, up to 32 μg/ml; for MIC: 48 h, no visible growth; for MBC: spotted on rich agar 48 h, no colony
[5] = tested on: Atu C58C1; conditions: Table 4, rich medium, up to 32 μg/ml; for MIC: 48 h, no visible growth; for MBC: spotted on rich agar 48 h, no colony

CCCCCCCCCCCCCC(=O)N[C@@H](Cc1c[nH]c2ccccc12)C(=O)N[C@@H](CCCCN)C(=O)N[C@@H](CCCCN)C(=O)N[C@@H](CC(C)C)C(=O)N[C@@H](CCCCN)C(=O)N[C@@H](CCCCN)C(=O)N[C@@H](CC(C)C)C(=O)N[C@@H](CC(C)C)C(=O)N[C@@H](CCCCN)C(=O)N[C@@H](CCCCN)C(=O)N[C@@H](CC(C)C)C(=O)N[C@@H](CCCCN)C(=O)N[C@@H](CCCCN)C(=O)N[C@@H](CC(C)C)C(N)=O [pepD2M] (Myristoyl-WKKLKKLLKKLKKL-NH2)
membranolytic effect (SYTOX Green staining) [1]: significant membranolytic effect

Ac-WKKIKKIIKKIKKI-NH2 [pepI2]
MBC [2]: 2 µg/mL
MIC [2]: 2 µg/mL
MBC [3]: 16 µg/mL
MIC [3]: 16 µg/mL

Ac-WKKLKKLLKKL-NH2 [pepD3]
MIC [4]: 2 µg/mL
MBC [4]: 2 µg/mL
MBC [2]: 16 µg/mL
MIC [5]: 2 µg/mL
MBC [5]: 2 µg/mL
membranolytic effect (SYTOX Green staining) [1]: significant membranolytic effect

Ac-WKKLKKLLKKLKKL-NH2 [pepD2]
MIC [4]: 1 µg/mL
MBC [4]: 1 µg/mL
MBC [2]: 16 µg/mL
MIC [5]: 2 µg/mL
MBC [5]: 2 µg/mL
membranolytic effect (SYTOX Green staining) [1]: significant membranolytic effect
